Measured values reported in patent US20090318551A1, “USES OF ANALOGS OF 3-O-ACETYL-11-KETO-BETA-BOSWELLIC ACID” (priority 2004, published 2009).
Where a name gives a salt, the structure may show the parent alone.

Key:
5-Lipoxygenase = experiment: 5-Lox assay (colorimetric, ferric xylenol orange); type: biochemical; conditions: linoleic acid substrate, pH 6.3; for % inhibition @ 100 μM: 100 μM test substance; for % inhibition @ 250 μM: 250 μM test substance
Procedure: The AKBA analogs were screened for their 5-Lipoxygenase inhibitory potential using colorimetric method of Craig A. Gay et al (Anal Biochem., 304, 42 46, 2002). The assay mixture contained 50 mM phosphate buffer pH 6.3, 5-Lipoxygenase, various concentrations of test substances and linoleic acid in a total volume of 0.5 mL after 5 min incubation of above reaction mixture 0.5 ml ferric xylenol orange reagent was added and OD was measured after two minutes at 585 nm using spectrophotometer (varian). Controls were run along with test in a similar manner except using vehicle instead of test substance solution. Percent inhibition was calculated by comparing absorbance of test with that of control

Artemia salina = experiment: Brine shrimp lethality (BSL) assay; type: in vivo; conditions: nauplii, viability/mortality after 24 hr; for LC50: Artemia salina, read-out: LD50 in mcM
Source text: Brine shrimp lethality (BSL) assay is a simple bench top bioassay developed by McLaughlin, et. al. (Studies in Natural Product Chemistry, 9, page 383, 1991 and Am. Chem. Soc. Symp. Series, 534, page 114, 1992) and the results obtained by this assay have been reported to be corroborative with the cytotoxicities determined in 9KB and 9PS cells. The procedure involves hatching Artemia salina cysts in a cone shaped vessel and collecting active nauplii after 48 hr and treating with known concentrations of test substances and vehicle (control) in tubes each tube containing 10 nauplii and checking viability/mortality after 24 hr. Percentage lethality was calculated by comparing mean values of control and test sets of three tubes each. LC50 values were obtained from the graph plotted micro molar concentration against percent lethality.

5-LO = target: T1, 5-LO (Homo sapiens, UniProt P09917); conditions: compared with the six boswellic acids; cited from earlier work
T1 sequence (P09917 1-674): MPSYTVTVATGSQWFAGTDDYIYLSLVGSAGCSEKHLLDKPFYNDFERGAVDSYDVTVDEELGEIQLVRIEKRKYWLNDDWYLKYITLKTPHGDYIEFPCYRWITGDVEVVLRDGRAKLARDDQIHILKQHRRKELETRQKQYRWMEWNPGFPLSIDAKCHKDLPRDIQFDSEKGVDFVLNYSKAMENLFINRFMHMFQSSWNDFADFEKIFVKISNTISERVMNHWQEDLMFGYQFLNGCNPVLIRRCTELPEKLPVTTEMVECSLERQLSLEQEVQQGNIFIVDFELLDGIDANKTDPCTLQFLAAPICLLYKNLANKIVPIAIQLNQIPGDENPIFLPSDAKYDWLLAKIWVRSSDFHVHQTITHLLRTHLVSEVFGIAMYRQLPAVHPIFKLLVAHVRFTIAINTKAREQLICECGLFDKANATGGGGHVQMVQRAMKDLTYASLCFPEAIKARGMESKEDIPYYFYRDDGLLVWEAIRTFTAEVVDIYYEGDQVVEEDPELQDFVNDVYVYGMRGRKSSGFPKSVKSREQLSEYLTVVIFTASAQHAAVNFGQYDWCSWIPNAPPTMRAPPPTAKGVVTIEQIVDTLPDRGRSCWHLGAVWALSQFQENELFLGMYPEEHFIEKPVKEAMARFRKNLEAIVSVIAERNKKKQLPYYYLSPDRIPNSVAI

| Compound | % inhibition @ 100 μM (5-Lipoxygenase) | % inhibition @ 250 μM (5-Lipoxygenase) | LD50 in mcM (Artemia salina) | inhibitory activity against 5-LO (in words) (5-LO) | LC50 (Artemia salina) |
| --- | --- | --- | --- | --- | --- |
| 3-O-Acetyl-11-keto-β-boswellic acid [Compound B2, reference compound] | 18.7% | 31% | 5.5 mcM | most pronounced inhibitory activity against 5-LO |  |
| CC1CCC2(C)CCC3(C)C(=CC(=O)C4C5(C)CCC(OC=O)C(C)(C(=O)O)C5CCC43C)C2C1C (stereo not drawn) [Compound 1, 3-O-Formyl-11-keto-β-boswellic acid] |  | 5.5% | 55.0 mcM |  |  |
| C[C@@H]1CC[C@]2(C)CC[C@]3(C)C(=CC(=O)C4[C@@]5(C)CCC(OC(=O)CCl)[C@](C)(C(=O)O)C5CC[C@]43C)C2[C@H]1C (stereo partly drawn) [Compound 2, 3-O-(Chloroacetyl)-11-keto-β-boswellic acid] |  | 3.12% |  |  | 98 µM |
| COc1cc(C(=O)O[C@@H]2CC[C@@]3(C)C(CC[C@]4(C)C3C(=O)C=C3C5[C@@H](C)[C@H](C)CC[C@]5(C)CC[C@]34C)[C@@]2(C)C(=O)O)cc(O)c1O (stereo partly drawn) [Compound 3, 3-O-(5′-O-methylgalloyl)-11-keto-β-boswellic acid] | 27.4% |  |  |  | 33 µM |
| CC1CCC2(C)CCC3(C)C(=CC(=O)C4C5(C)CCC(OC(=O)CCC(=O)O)C(C)(C(=O)O)C5CCC43C)C2C1C (stereo not drawn) [Compound 4, 3-O -Succinyl-11-keto-β-boswellic acid] |  | 41.1% | 69.0 mcM |  |  |
| CC1CCC2(C)CCC3(C)C(=CC(=O)C4C5(C)CCC(OC(=O)C=Cc6ccc(O)cc6)C(C)(C(=O)O)C5CCC43C)C2C1C (stereo not drawn) [Compound 6, 3-O-[4′-Hydroxycinnamoyl]-11-keto-β-boswellic acid] |  | 11.3% | 6.0 mcM |  |  |
| COc1ccc(C=CC(=O)OC2CCC3(C)C(CCC4(C)C3C(=O)C=C3C5C(C)C(C)CCC5(C)CCC34C)C2(C)C(=O)O)cc1OC (stereo not drawn) [Compound 7, 3-O -(3′,4′-dimethoxycinnamoyl)-11-keto-β-boswellic acid] |  | 17.8% | 6.2 mcM |  |  |
| COc1cc(C=CC(=O)OC2CCC3(C)C(CCC4(C)C3C(=O)C=C3C5C(C)C(C)CCC5(C)CCC34C)C2(C)C(=O)O)cc(O)c1O (stereo not drawn) [Compound 8, 3-O-(3′,4′-Dihydroxy-5′-methoxycinnamoyl)-11-keto-β-boswellic acid] |  | 8.1% | 12.0 mcM |  |  |
| COC(=O)C1(C)C(OC(=O)CNC(=O)OC(C)(C)C)CCC2(C)C1CCC1(C)C2C(=O)C=C2C3C(C)C(C)CCC3(C)CCC21C (stereo not drawn) [Compound 9, Methyl 3-O-(N-Boc-glycyl)-11-keto-β-boswellate] |  | 16.7% | >100 mcM |  |  |
| C[C@@H]1CC[C@]2(C)CC[C@]3(C)C(=CC(=O)C4[C@@]5(C)CC[C@@H](OC(=O)CN)[C@](C)(C(=O)O)C5CC[C@]43C)C2[C@H]1C (stereo partly drawn) [Compound 10, 3-O-Glycyl-11-keto-β-boswellic acid hydrochloride] | 23.9% |  | 12.0 mcM |  |  |
| C[C@H](N)C(=O)O[C@@H]1CC[C@@]2(C)C(CC[C@]3(C)C2C(=O)C=C2C4[C@@H](C)[C@H](C)CC[C@]4(C)CC[C@]23C)[C@@]1(C)C(=O)O (stereo partly drawn) [Compound 11, 3-O-Alanyl-11-keto-β-boswellic acid hydrochloride] | 33.6% |  | 29.0 mcM |  |  |
| COC(=O)[C@]1(C)C2CC[C@]3(C)C(C(=O)C=C4C5[C@@H](C)[C@H](C)CC[C@]5(C)CC[C@]43C)[C@@]2(C)CC[C@@H]1O (stereo partly drawn) [Compound 12, Methyl 3β-hydroxy-11-ketours-12-en-24-oate] |  | 0.37% |  |  | > 100 µM |
| COC(=O)[C@]1(C)C2CC[C@]3(C)C(C(=O)C=C4C5[C@@H](C)[C@H](C)CC[C@]5(C)CC[C@]43C)[C@@]2(C)CC[C@@H]1Br (stereo partly drawn) [Compound 13, Methyl 3β-bromo-11-ketours-12-en-24-oate] |  | 17.6% |  |  | > 100 µM |
| COC(=O)[C@@]1(C)C(C#N)CC[C@@]2(C)C1CC[C@]1(C)C2C(=O)C=C2C3[C@@H](C)[C@H](C)CC[C@]3(C)CC[C@]21C (stereo partly drawn) [Compound 14, Methyl 3α-cyano-11-ketours-12-en-24-oate] |  | 3.71% |  |  | > 100 µM |
| COC(=O)[C@]1(C)C2CC[C@]3(C)C(C(=O)C=C4C5[C@@H](C)[C@H](C)CC[C@]5(C)CC[C@]43C)[C@@]2(C)CC[C@H]1S (stereo partly drawn) [Compound 15, Methyl 3α-thiohydroxy-11-ketours-12-en-24-oate] |  | 53.1% |  |  | 5.2 µM |
| COC(=O)[C@@]1(C)/C(=N\O)CC[C@@]2(C)C1CC[C@]1(C)C2C(=O)C=C2C3[C@@H](C)[C@H](C)CC[C@]3(C)CC[C@]21C (some centres unmarked) [Compound 16, Methyl 3-oximino-11-ketours-12-en-24-oate] |  | 41.6% |  |  | > 100 µM |
| CC(=O)OC1CC[C@@]2(C)C(CC[C@]3(C)C2C(=O)C=C2C4[C@@H](C)[C@H](C)CC[C@]4(C)CC[C@]23C)[C@@H]1C (some centres unmarked) [Compound 17, 3-Acetoxy-11-keto-24-norurs-12-ene] |  | 0% |  |  | > 100 µM |
| CC(=O)OC1CC[C@@]2(C)C(CC[C@]3(C)C2C(=O)C=C2C4[C@@H](C)[C@H](C)CC[C@]4(C)CC[C@]23C)[C@@]1(C)C(=O)OCCN(C)C (stereo partly drawn) [Compound 18, (2′-N,N-Dimethylaminoethyl) 3-O-acetyl-11-keto-β-boswellate] | 25.4% |  |  |  | > 100 µM |
| CC(=O)OC1CC[C@@]2(C)C(CC[C@]3(C)C2C(=O)C=C2C4[C@@H](C)[C@H](C)CC[C@]4(C)CC[C@]23C)[C@@]1(C)C(N)=O (stereo partly drawn) [Compound 19, 3-O-Acetyl-11-keto-β-boswellic acid amide] |  | 35.8% |  |  | 4.6 µM |
| CC(=O)OC1CC[C@@]2(C)C(CC[C@]3(C)C2C(=O)C=C2C4[C@@H](C)[C@H](C)CC[C@]4(C)CC[C@]23C)[C@@]1(C)C(=O)NN (stereo partly drawn) [Compound 20, N-(3-O-Acetyl-11-keto-β-boswelloyl)-hydrazide] |  | 54.3% |  |  | 2.3 µM |
| CC(=O)OC1CC[C@@]2(C)C(CC[C@]3(C)C2C(=O)C=C2C4[C@@H](C)[C@H](C)CC[C@]4(C)CC[C@]23C)[C@@]1(C)C(=O)NCCN (stereo partly drawn) [Compound 21, N-(3-O-Acetyl-11-keto-β-boswelloyl)-ethylenediamine] |  | 76.6% |  |  | 71 µM |
| CC(=O)OC1CC[C@@]2(C)C(CC[C@]3(C)C2C(=O)C=C2C4[C@@H](C)[C@H](C)CC[C@]4(C)CC[C@]23C)[C@@]1(C)C(=O)NCCO (stereo partly drawn) [Compound 22, N-(3-O-Acetyl-11-keto-β-boswelloyl)-2-aminoethanol] |  | 10.4% |  |  | > 100 µM |
| CC(=O)OC1CCC2(C)C(CCC3(C)C2C(=O)C=C2C4C(C)C(C)CCC4(C)CCC23C)C1(C)C(=O)N1CCNCC1 (stereo not drawn) [Compound 23, N-(3-O-Acetyl-11-keto-β-boswelloyl)-piperzine] | 34.9% |  | 0.88 mcM |  |  |
| CC(=O)OC1CC[C@@]2(C)C(CC[C@]3(C)C2C(=O)C=C2C4[C@@H](C)[C@H](C)CC[C@]4(C)CC[C@]23C)[C@@]1(C)N=C=O (some centres unmarked) [Compound 24, 3-Acetoxy-11-keto-24-norurs-12-en-4-isocyanate] |  | 0% |  |  | > 100 µM |
| CC(=O)OC1CC[C@@]2(C)C(CC[C@]3(C)C2C(=O)C=C2C4[C@@H](C)[C@H](C)CC[C@]4(C)CC[C@]23C)[C@@]1(C)N (some centres unmarked) [Compound 25, 3-Acetoxy-4-amino-11-keto-24-norurs-12-ene] |  | 60.5% |  |  | 6 µM |
| CC(=O)OC1CC[C@@]2(C)C(CC[C@]3(C)C2C(=O)C=C2C4[C@@H](C)[C@H](C)CC[C@]4(C)CC[C@]23C)[C@@]1(C)C#N (some centres unmarked) [Compound 26, 3-Acetoxy-4-cyano-11-keto-24-norurs-12-ene] |  | 9.8% |  |  | > 100 µM |
| C[C@@H]1CC[C@]2(C)CC[C@]3(C)C(=CC(O)C4[C@@]5(C)CC[C@@H](O)[C@](C)(C(=O)O)C5CC[C@]43C)C2[C@H]1C (stereo partly drawn) [Compound 27, 11-Hydroxy-β-boswellic acid] |  | 12.2% |  |  | 28.3 µM |
